Test results taken from US9895363B2, “Methods for modulating function of proliferating cell nuclear antigen (PCNA) and treating cancer with PCNA-targeting compounds” (University of Cincinnati, priority 2010, dated 2018).
Where two headings read alike, the source gives them in different places. One block for each compound: values may come before it.

Key:
[1] = tested on: PC-3 prostate cancer cells; test: Growth inhibition by MTT staining, PC-3; format: cell-based, Human; settings: MTT
Method: (§1) Growth inhibitory effects of PCNA-I1 and PCNA-I2 were assessed in human cancer cell lines, mouse cancer cell lines, immortalized mouse cell lines, and human primary cell lines. Specifically, growth inhibitory effects of PCNA-I1 and PCNA-I2 were assessed using MTT staining in the following cells lines: 1) human cancer cell lines including LNCaP (androgen receptor […]), 22Rv1, DU-145, LAPC-4, and PC-3 (androgen receptor […]) prostate cancer cells; MCF-7 and T47D breast cancer cells; A375 and MDA-MB435 melanoma cells; 2) mouse cancer cell lines including TRAMP-C2RE3 prostate cancer cells, B16 and K1735 melanoma cells, UV2237 fibrosarcoma cells, and CT-26 colon cancer cells; 3) immortalized mouse lung cell lines and mouse endothelial cell lines; and 4) primary human cell lines including umbilical endothelial cells (HUVEC, PromoCell, Heidelberg, Germany), primary bone marrow mesenchymal stem cells (HuMSC, PromoCell), primary human mammary epithelial cells (HuBrEC, Lonza, Walkersville, Md.), primary human prostate epithelial cells (HuPrEC, Lonza), and primary mouse spleen lymphocytes (isolated in this laboratory), and primary mouse bone marrow stromal cells (isolated in this laboratory). PCNA-I1 and PCNA-I2 were either provided by the University of Cincinnati Drug Discovery Center (UC-DDC, Cincinnati, Ohio) or were purchased from Chembridge Co (San Diego, Calif.), ChemDiv (San Diego, Calif.), and/or Sigma-Aldrich (St Louis, Mo.).
(§2) Growth inhibitory effects of the compounds were assessed by MTT staining as described previously by Dong et al. in In Vitro Model for Intrinsic Drug Resistance: Effects of Protein Kinase C Activators on the Chemosensitivity of Cultured Human Colon Cancer Cells; Mol. Pharmacol. 1991; 39: 563-9. Briefly, cells were cultured and treated in their respective media. Cells were plated into 96-well plates at 1000 to 5000 cells/well. After an overnight incubation, the cells were treated for four days with various concentrations (up to 10 μM) of PCNA-I1 or PCNA-I2. The live cells were stained with MTT and cells in exponential growth phase were harvested by a one to three minute treatment with a 0.25% trypsin-0.02% EDTA solution. Flasks were tapped to detach the cells, RPMI 1640-10% FBS was added, and the cell suspensions were gently agitated to produce single-cell suspensions. The cell suspensions were washed and resuspended in medium with supplements specified for different cells. Only suspensions of single cells with a viability exceeding 95% (ascertained by trypan blue exclusion) were used.
(§3) IC50 values were derived from growth inhibition curves. Data for tumor cells are a mean of five to seven experiments. Data for primary cells are a mean of three experiments. […] Inhibition of cell growth was calculated using the formula: growth inhibition (%)=(1−A570 of treated/A570 of control)×100. IC50 (the concentration that inhibited cell growth by 50%) values were also determined. For evaluation of lymphocyte growth in suspension, an Alamar blue assay was performed, wherein freshly prepared mouse spleen lymphocytes were stimulated for 72 H with 2 ug/mL concanavalin A (Sigma Chemicals, St. Louis, […].). During the last 24 H, 20 μl/well of Alamar blue (Invitrogen, Carlsbad, Calif.) was added. The fluorescence intensity was measured at 530/580 (excitation/emission) in the FLUOstar Omega microplate reader (BMG LABTECH, Cary, N.C.).
(§4) Growth inhibitory effects of PCNA-I3, PCNA-I4, PCNA-I6, PCNA-I7, PCNA-I8, PCNA-I9 and PCNA-I10 were assessed in human prostate cancer cell lines. Specifically, growth inhibitory effects of PCNA-I3, PCNA-I4, PCNA-I6, PCNA-I7, PCNA-I8, PCNA-I9 and PCNA-I10 were assessed using MTT staining in LNCaP and PC-3 cells. […]

[2] = tested on: LNCaP prostate cancer cells; test: Growth inhibition by MTT staining, LNCaP; format: cell-based, Human; settings: 96 h
Method: as §1, §2, §3, §4

[3] = tested on: LNCaP cells; test: MTT assay, PCNA-I1 and cisplatin alone or combined, LNCaP; format: cell-based, Human
Method: (§5) LNCaP or PC-3 cells were treated with a variety of concentrations of PCNA-I1 (0.1-10 μM) or cisplatin (0.1-10 μM) alone, or with a variety of concentrations of a combination of PCNA-I1 (0.1-10 μM) and cisplatin (0.1-10 μM) for four days. MTT assays were performed and IC50 values for PCNA-I1 and cisplatin were determined.

[4] = tested on: PC-3 cells; test: MTT assay, PCNA-I1 and cisplatin alone or combined, PC-3; format: cell-based, Human
Method: as §5

[5] = tested on: LNCaP cells; test: DNA damage, apoptosis and cell cycle proteins by immunoblot, LNCaP; format: cell-based, Human
Method: Fluorescence-activated cell sorting (FACS) analysis was performed on both PC-3 cells and LNCaP cells using PCNA-I1. Specifically, cells were treated with 1 or 10 μM PCNA-I1 and sampled for the flow cytometry analysis at 24 H, 48 H, and 72 H. Expression of DNA damage and apoptosis-related proteins in PC-3 cells and LNCaP cells was also determined. Cisplatin, a well-known drug that induces DNA damage and apoptosis, was included in the experiment. LNCaP cells were treated for 6 H, 12 H, or 18 H with 10 μM PCNA-I1, 10 μM cisplatin, or both.
To further explore the differential effects of PCNA-I1 on LNCaP and PC-3 cells, the effects of PCNA-I1 and cisplatin on expression of cell cycle- and apoptosis-related proteins in the two cell lines were compared. LNCaP cells and PC-3 cells were treated with 1 μM PCNA-I1 and/or 5 μM cisplatin for 12 H, 18 H, or 24 H and cell lysates were sampled for immunoblotting.

[6] = tested on: primary mouse spleen lymphocytes; test: Alamar blue assay of lymphocyte growth; format: cell-based; settings: 2 μg/mL, 72 H; FIG. 2(A)
Method: as §3
The effects of PCNA-I1 on growth of tumor cells versus primary cells was also investigated. Specifically, the effects of PCNA-1I on the growth of primary cells was investigated using primary culture of mouse lymphocytes. An Alamar blue assay was performed with PC-3 cells as a positive control. Freshly prepared mouse spleen lymphocytes were stimulated for 72 H with 2 μg/mL of concanavalin A. During the last 24 H, 20 μL/well of alamar blue was added. The fluorescence intensity was measured at 530/580 (excitation/emission).

[7] = tested on: Tumor Cells; test: Growth inhibition, mean over tumor cell lines; format: cell-based; settings: most cell lines examined
Method: as §1, with “PCNA-I1 and PCNA-I2 were either provided by the University of Cincinnati Drug Discovery Center (UC-DDC, Cincinnati, Ohio) or were purchased from Chembridge Co (San Diego, Calif.), ChemDiv (San Diego, Calif.), and/or Sigma-Aldrich (St Louis, Mo.).” left out
(§6) IC50 values were derived from growth inhibition curves. […] Inhibition of cell growth was calculated using the formula: growth inhibition (%)=(1−A570 of treated/A570 of control)×100. […]

[8] = tested on: MCF-7 breast cancer cells; test: Growth inhibition by MTT staining, MCF-7; format: cell-based; settings: MCF7, 96 h, Human, tumor cells, treated four days
Method: as §1, with “PCNA-I1 and PCNA-I2 were either provided by the University of Cincinnati Drug Discovery Center (UC-DDC, Cincinnati, Ohio) or were purchased from Chembridge Co (San Diego, Calif.), ChemDiv (San Diego, Calif.), and/or Sigma-Aldrich (St Louis, Mo.).” left out
as §6

[9] = tested on: LAPC-4 prostate cancer cells; test: Growth inhibition by MTT staining, LAPC-4; format: cell-based; settings: LAPC4, 96 h, Human tumor cells, treated four days
Method: as §1, with “PCNA-I1 and PCNA-I2 were either provided by the University of Cincinnati Drug Discovery Center (UC-DDC, Cincinnati, Ohio) or were purchased from Chembridge Co (San Diego, Calif.), ChemDiv (San Diego, Calif.), and/or Sigma-Aldrich (St Louis, Mo.).” left out
as §6

[10] = tested on: A375 melanoma cells; test: Growth inhibition by MTT staining, A375; format: cell-based; settings: A-375, 96 h, Human, treated four days
Method: as §1, with “PCNA-I1 and PCNA-I2 were either provided by the University of Cincinnati Drug Discovery Center (UC-DDC, Cincinnati, Ohio) or were purchased from Chembridge Co (San Diego, Calif.), ChemDiv (San Diego, Calif.), and/or Sigma-Aldrich (St Louis, Mo.).” left out
as §6

[11] = molecular target: T1, PCNA (Homo sapiens, UniProt P12004); test: PCNA trimer formation assay, PC-3 cell lysate; format: biochemical; settings: PC-3 lysate, 1 μM or 10 μM, 3 H, SDS-PAGE; FIG. 9(A)
T1 construct: endogenous PCNA was knocked down with transfection of PCNA-specific siRNA; endogenous in cells; host or cells: PC-3
T1 sequence (P12004 whole entry): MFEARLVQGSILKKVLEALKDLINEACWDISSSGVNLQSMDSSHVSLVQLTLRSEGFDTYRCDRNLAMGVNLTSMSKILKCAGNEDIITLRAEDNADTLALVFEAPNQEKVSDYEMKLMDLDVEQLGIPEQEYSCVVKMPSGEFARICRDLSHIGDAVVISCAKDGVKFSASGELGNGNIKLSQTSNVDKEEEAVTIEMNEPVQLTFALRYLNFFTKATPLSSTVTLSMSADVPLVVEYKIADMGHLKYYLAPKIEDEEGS
Method: The effect of PCNA-I1, PCNA-I2, PCNA-I3, PCNA-I4, PCNA-I6, PCNA-I7, PCNA-I8, PCNA-I9, and PCNA-I10 on PCNA trimer formation was investigated by SDS-PAGE and immunoblotting. Specifically, a trimer formation assay was performed on both PC-3 cell lysates and purified recombinant protein. The trimer formation assay was performed on purified recombinant protein to determine whether the effects of PCNA compounds on the stable trimer formation required the participation of other cellular proteins.
Purified His-PCNA (0.1 μg/reaction) and PC-3 cell lysates (50 μg/reaction) were incubated for 3 H at room temperature in a reaction buffer (40 mM Tris-HCl, pH 7.5, 0.2 mg/mL BSA, 10 mM MgCl2, and 10% glycerol) in the absence or presence of DMSO (0.1% vehicle control) or PCNA-I1, PCNA-I2, PCNA-I3, PCNA-I4, PCNA-I6, PCNA-I7, PCNA-I8, PCNA-I9, or PCNA-I10 (1 μM or 10 μM). The reaction was stopped by addition of the SDS-PAGE sample buffer without a reducing agent. The samples were resolved in SDS-PAGE without boiling and analyzed by immunoblotting using PCNA antibody.

[12] = tested on: DU145 prostate cancer cells; test: Growth inhibition by MTT staining, DU145; format: cell-based; settings: DU-145, 96 h, Human tumor cells, treated four days
Method: as §1, with “PCNA-I1 and PCNA-I2 were either provided by the University of Cincinnati Drug Discovery Center (UC-DDC, Cincinnati, Ohio) or were purchased from Chembridge Co (San Diego, Calif.), ChemDiv (San Diego, Calif.), and/or Sigma-Aldrich (St Louis, Mo.).” left out
as §6

[13] = tested on: GFP-PCNA; test: GFP-PCNA chromatin association, fluorescence microscopy; format: cell-based, Human; settings: PC-3 transfected with pGFP-PCNA; 4 H, 0.5 μM PCNA-I1 or 2 μM PCNA-I2; FIG. 11
Method: Additionally, PC-3 cells were transfected for 24 H with pGFP-PCNA. The cells were then treated for 4 H with 0.5 μM of PCNA-I1 or 2 μM of PCNA-I2. The intact GFP-PCNA expressing cells were observed under a fluorescent microscope and recorded. After treatment with a buffer with 0.5% NP-40 buffer B, the cells were examined and recorded.

[14] = Homo sapiens, PC-3, 96 h, Table III, four days, mean of two experiments, read-out: IC50 Values of PCNA Inhibitors, PC-3 Cells
[15] = Homo sapiens, Table III, four days, mean of two experiments, read-out: IC50 Values of PCNA Inhibitors, LNCaP Cells

IC50 [1, 14]: > 10000 nM
IC50 [2, 15]: > 10000 nM
Compound: Cc1ccc2[nH]c(=O)c(/C=N/NC(=O)c3ccccc3)c(O)c2c1 [PCNA-I6]

Compound: N.N.[Cl][Pt][Cl] [cisplatin, reference compound]
IC50 ([3]; MTT, four days, single agent, read-out: IC50 doses for cell growth inhibition, LNCaP, agent alone): 650 nM
IC50 ([3]; combined with 0.067 μM PCNA-I1, read-out: Cisplatin concentration giving 50% inhibition in combination, LNCaP): 300 nM
IC50 ([4]; MTT, four days, single agent, read-out: IC50 doses for cell growth inhibition, PC-3, agent alone): 450 nM
IC50 ([4]; combined with 0.08 μM PCNA-I1, read-out: Cisplatin concentration giving 50% inhibition in combination, PC-3): 300 nM
Expression of retinoblastoma (Rb) and cyclin D1 ([5]; LNCaP and PC-3, 1 μM PCNA-I1 and/or 5 μM cisplatin, 12-24 H): moderately downregulated expression of cell cycle-regulating proteins
Phosphorylation of p53, single agent ([5]; LNCaP, 10 μM): induced
Expression of p21 protein ([5]; LNCaP, 10 μM PCNA-I1 and/or 10 μM cisplatin): enhanced expression of p21 protein at 6 H and 12 H
PARP cleavage, single agent ([5]; LNCaP, 10 μM alone): induced PARP cleavage
DNA double strand break (γH2AX induction), single agent ([5]; LNCaP, 10 μM alone, 6-18 H, FIG. 17(A)): induced moderate double strand break (DSB) of DNA

IC50 [1, 14]: 3600 nM
IC50 [2, 15]: 2200 nM
Compound: O=C(N/N=C/c1ccc2ccccc2c1O)c1sc2ccccc2c1O [PCNA-I7]

IC50 [1, 14]: 1000 nM
IC50 [2, 15]: 680 nM
Compound: C/C(=N\NC(=O)c1cccc(F)c1)c1ccc2ccccc2c1O [PCNA-I8]

IC50 [1, 14]: 2200 nM
IC50 [2, 15]: 710 nM
Compound: C/C(=N\NC(=O)c1ccccc1O)c1ccc2ccccc2c1O [PCNA-I9]

Compound: concanavalin A [reference compound]
Stimulation of lymphocyte growth [6]: about 3.5 fold

IC50 ([1]; 96 h, Table II, Human tumor cells, treated four days, mean of five to seven experiments, read-out: IC50 Values, PC-3): 970 nM
IC50 [8]: 1010 nM
IC50 ([2]; Table II, Human tumor cells, treated four days, mean of five to seven experiments, read-out: IC50 Values, LNCaP): 560 nM
IC50 [9]: 1790 nM
IC50 [10]: 3750 nM
Portion of PCNA in the trimer form [11]: significantly elevated
IC50 [12]: 1190 nM
Compound: O=C(N/N=C/c1c(O)ccc2ccccc12)c1ccn[nH]1 [PCNA-I2]
Potency relative to PCNA-I1 [7]: about three to five times less potent than PCNA-I1
Level of chromatin-associated GFP-PCNA [13]: reduced the level of chromatin-associated GFP-PCNA
Total intensity of GFP-PCNA [13]: did not significantly alter the total intensity of GFP-PCNA

IC50 [1, 14]: > 10000 nM
IC50 [2, 15]: 2200 nM
Compound: O=C(NNC(=O)c1c(O)c2ccccc2[nH]c1=O)c1ccccc1[N+](=O)[O-] [PCNA-I10]

IC50 [1, 14]: 440 nM
IC50 [2, 15]: 260 nM
Compound: O=C(N/N=C/c1ccc2ccccc2c1O)c1cccc(Cl)c1 [PCNA-I3]

IC50 [1, 14]: 3000 nM
IC50 [2, 15]: 680 nM
Compound: O=C(NNS(=O)(=O)c1ccc(Br)cc1)c1c(O)c2ccccc2[nH]c1=O [PCNA-I4]
